Molecules are shown by their SMILES.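 Tested at 5 concentrations; 48 h exposure; 96-well plates; endpoints linearly interpolated, else capped at highest concentration. Abbreviation: GI50, concentration required for 50% inhibition of growth.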 Active and inactive are the calls of the source. Rule as the data show it: active = GI50 up to about 1.1 µM and inactive = higher. A value given as a limit tells only on which side of the number the result lay.

Some test systems named below: U-251; RXF 393; CCRF-CEM; SK-MEL-5; SNB-19; HCT-15; SF-268; HOP-62; HT-29; SK-MEL-28; SW-620; NCI-H460; COLO 205; SN12C; OVCAR-8; OVCAR-3; NCI-H23; SF-295; OVCAR-5; UO-31.
Common to all, as to experiment: growth of human tumour cells (NCI), 48 h

`c1nc2nc[nH]c(SSc3[nH]cnc4ncnc3-4)c-2n1`: the GI50 is 5.68 µM (inactive) with U-251; > 100 µM (inactive) with RXF 393; 0.202 µM (active) in the assay with CCRF-CEM; 4.83 µM (inactive) with SK-MEL-5; 47.4 µM (inactive) in the assay with SNB-19; 0.925 µM in the assay with HCT-15. Moreover, the GI50 was 0.897 µM (active) with SF-268; 0.116 µM (active) in the assay with HOP-62; 1.19 µM (inactive) with HT-29; 61.8 µM (inactive) in the assay on SK-MEL-28; 0.824 µM (active) in the assay with SW-620; 2.65 µM (inactive) in the assay on NCI-H460. Moreover, the GI50 in the assay with COLO 205 is 0.653 µM (active); in the assay with SN12C, 12.8 µM (inactive); in the assay on OVCAR-8, 0.455 µM (active); with OVCAR-3, < 0.0442 µM (active); with NCI-H23 it was 0.292 µM (active); with SF-295, 0.127 µM (active). Moreover, in the assay on OVCAR-5, the GI50 was 4.4 µM (inactive).
With `CCSc1nc(N)c2c(-c3ccccc3)c3c(nc2n1)CCC3`, the GI50 in the assay on U-251 is > 100 µM (inactive); with RXF 393, > 100 µM (inactive); in the assay with CCRF-CEM it was > 100 µM (inactive); in the assay on SK-MEL-5, > 100 µM (inactive); in the assay on SNB-19, > 100 µM (inactive); in the assay with HCT-15 it was over 100 µM. In addition, the GI50 in the assay with SF-268, with HOP-62, in the assay on SK-MEL-28, with SW-620, with NCI-H460 and with COLO 205 was > 100 µM (inactive) throughout. In addition, the GI50 with SN12C was > 100 µM (inactive); in the assay on OVCAR-8, > 100 µM (inactive); in the assay with OVCAR-3, > 100 µM (inactive); with NCI-H23, > 100 µM (inactive); in the assay with UO-31, 2.59 µM (inactive); in the assay with SF-295, > 100 µM (inactive). Besides, the GI50 in the assay on OVCAR-5 is 9.91 µM (inactive).
`COc1ccc(N2C(=O)CSC2c2c[nH]c3ccccc23)cc1` (centres undefined): the GI50 was 88.7 µM (inactive) with U-251; > 100 µM (inactive) with RXF 393; 39.5 µM (inactive) in the assay with CCRF-CEM; 88.5 µM (inactive) in the assay with SK-MEL-5; > 100 µM (inactive) in the assay with SNB-19; 70.3 µM in the assay with HCT-15. Further, the GI50 is > 100 µM (inactive) in the assay with SF-268; > 100 µM (inactive) in the assay with HOP-62; 51.1 µM (inactive) with HT-29; > 100 µM (inactive) in the assay with SK-MEL-28; > 100 µM (inactive) in the assay with SW-620; 32.4 µM (inactive) with NCI-H460. Moreover, the GI50 was 92.7 µM (inactive) in the assay with COLO 205; > 100 µM (inactive) in the assay on SN12C; 60 µM (inactive) in the assay with OVCAR-8; > 100 µM (inactive) in the assay with OVCAR-3; 69.7 µM (inactive) in the assay on NCI-H23; 49.8 µM (inactive) with UO-31. The values for the GI50 with SF-295 and with OVCAR-5 were 44.9 µM (inactive) and > 100 µM (inactive), respectively.
With `NC(S)=Nc1cc(Cl)ccc1Cl`, the GI50 in the assay with U-251 is > 100 µM (inactive); in the assay on RXF 393, 94 µM (inactive); with CCRF-CEM it was > 100 µM (inactive); with SK-MEL-5 it was > 100 µM (inactive); in the assay with SNB-19, > 100 µM (inactive); in the assay with HCT-15, over 100 µM. Also, the GI50 in the assay on SF-268, in the assay with HOP-62, in the assay with HT-29, with SK-MEL-28, in the assay with SW-620 and with NCI-H460 was > 100 µM (inactive) throughout. Also, the GI50 is > 100 µM (inactive) with COLO 205; > 100 µM (inactive) in the assay with SN12C; 62.1 µM (inactive) in the assay on OVCAR-8; > 100 µM (inactive) with OVCAR-3; > 100 µM (inactive) in the assay with NCI-H23; > 100 µM (inactive) in the assay with UO-31. The GI50 in the assay on SF-295 and with OVCAR-5 was > 100 µM (inactive) in each case.
Consider `Nc1ncnc2c1sc1nc3ccccc3n12`, for which the GI50 in the assay on U-251 was 53.1 µM (inactive); with RXF 393, 12.8 µM (inactive); in the assay on CCRF-CEM, 19.8 µM (inactive); in the assay on SK-MEL-5, 52 µM (inactive); with SNB-19 it was > 100 µM (inactive); with HCT-15, over 100 µM. Further, the GI50 is 19.4 µM (inactive) in the assay with SF-268; > 70.1 µM (inactive) in the assay on HOP-62; > 70.8 µM (inactive) in the assay on HT-29; > 100 µM (inactive) in the assay with SK-MEL-28; > 100 µM (inactive) in the assay with SW-620; 53.1 µM (inactive) in the assay with NCI-H460. The GI50 is > 100 µM (inactive) with COLO 205; > 100 µM (inactive) in the assay with SN12C; 60.8 µM (inactive) with OVCAR-8; > 100 µM (inactive) with OVCAR-3; > 100 µM (inactive) with NCI-H23; > 77.8 µM (inactive) in the assay with UO-31. Besides, the GI50 with SF-295 is > 56.2 µM (inactive); with OVCAR-5, > 93.3 µM (inactive).
With `Cc1cnc(SCCN2CCN(C)CC2)nc1-c1cc2ccccc2s1`, the GI50 is 8.36 µM (inactive) in the assay with U-251; 10.1 µM (inactive) in the assay on RXF 393; 3.18 µM (inactive) in the assay with CCRF-CEM; 3.46 µM (inactive) in the assay with SK-MEL-5; 10.5 µM in the assay with HCT-15; 0.155 µM (active) in the assay with HOP-62. For the same molecule, the GI50 in the assay with HT-29 was 6.03 µM (inactive); in the assay on SK-MEL-28 it was 16.2 µM (inactive); in the assay on SW-620, 11.9 µM (inactive); in the assay with NCI-H460, 3.51 µM (inactive); in the assay with COLO 205, 14.3 µM (inactive); in the assay with SN12C, 9.02 µM (inactive). The GI50 was 12.6 µM (inactive) in the assay on OVCAR-8; 5.98 µM (inactive) with OVCAR-3; 16.3 µM (inactive) with NCI-H23; 7.78 µM (inactive) in the assay with UO-31; 9.14 µM (inactive) in the assay on SF-295; > 10 µM (inactive) in the assay with OVCAR-5.
With `N=C(N)NS(=O)(=O)c1ccc(Nc2c3ccccc3nc3c(C(=O)N4CCN(CCO)CC4)ccc(Cl)c23)cc1`, the GI50 is > 100 µM (inactive) in the assay with U-251; > 100 µM (inactive) with RXF 393; > 100 µM (inactive) in the assay with CCRF-CEM; > 100 µM (inactive) in the assay on SK-MEL-5; > 100 µM (inactive) in the assay with SNB-19; over 100 µM in the assay on HCT-15. Further, the GI50 in the assay with SF-268, in the assay on HOP-62, in the assay on HT-29, in the assay with SK-MEL-28, in the assay with NCI-H460 and with COLO 205 was > 100 µM (inactive) each time. For the same molecule, the GI50 in the assay with SN12C, in the assay with OVCAR-8, in the assay with OVCAR-3, in the assay with NCI-H23, in the assay on UO-31 and in the assay with SF-295 was > 100 µM (inactive) each time. The GI50 with OVCAR-5 is > 100 µM (inactive).
With `O=C(N/N=C\C(F)(F)F)c1ccncc1`, the GI50 in the assay on U-251 is 26.9 µM (inactive); in the assay with RXF 393, 13.9 µM (inactive); with CCRF-CEM, 3.48 µM (inactive); with SK-MEL-5, 20.5 µM (inactive); in the assay on SNB-19 it was 71.9 µM (inactive); in the assay with HCT-15 it was 26.9 µM. The GI50 in the assay on HOP-62 was 24.7 µM (inactive); with HT-29, 7.59 µM (inactive); in the assay on SK-MEL-28, 80.7 µM (inactive); in the assay with SW-620, 37.8 µM (inactive); in the assay with NCI-H460, 19.9 µM (inactive); in the assay on COLO 205 it was 6.14 µM (inactive). Moreover, the GI50 in the assay on SN12C is 92.3 µM (inactive); with OVCAR-8, 48.2 µM (inactive); with OVCAR-3, 22.3 µM (inactive); in the assay on NCI-H23, 8.36 µM (inactive); in the assay on UO-31 it was 83.6 µM (inactive); in the assay with SF-295, 30.5 µM (inactive). The GI50 in the assay with OVCAR-5 is > 100 µM (inactive).

The values are drawn from ChEMBL document CHEMBL1201862, “PubChem BioAssay data set” (2004).
